Reference: paper PMC6309308 (Cell chemical biology, 2018)
Where “and” joins values, the source holds several entries; their conditions need not be identical. Equal values may be shown once.

What was measured:
Rpn11 = Rpn11 (Homo sapiens, UniProt O00487); assay: Rpn11 activity assay with Ub4-peptide substrate; format: biochemical; conditions: read-out: IC50 Rpn11
Csn5 = Csn5 (Homo sapiens, UniProt Q92905); assay: Csn5 inhibition assay; format: biochemical; conditions: read-out: IC50 Csn5
AMSH = target: T1, AMSH (Homo sapiens, UniProt O95630); assay: AMSH inhibition assay; format: biochemical; conditions: read-out: IC50 AMSH
T1 sequence (O95630 1-424): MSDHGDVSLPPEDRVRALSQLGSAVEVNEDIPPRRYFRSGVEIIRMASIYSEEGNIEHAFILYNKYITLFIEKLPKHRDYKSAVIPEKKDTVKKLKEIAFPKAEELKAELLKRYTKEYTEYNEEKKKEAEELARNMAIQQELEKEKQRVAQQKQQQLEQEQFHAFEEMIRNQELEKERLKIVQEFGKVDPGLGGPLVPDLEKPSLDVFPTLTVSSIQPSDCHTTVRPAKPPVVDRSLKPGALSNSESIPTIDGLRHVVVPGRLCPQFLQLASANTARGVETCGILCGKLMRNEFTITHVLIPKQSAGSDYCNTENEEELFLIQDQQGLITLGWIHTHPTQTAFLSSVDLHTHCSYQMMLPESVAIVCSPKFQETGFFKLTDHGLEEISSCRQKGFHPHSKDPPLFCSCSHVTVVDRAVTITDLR

[1] = target: Human carbonic anhydrase II (hCAII) (Homo sapiens, UniProt P00918); assay: hCAII assay; format: biochemical; conditions: read-out: IC50 hCAII; 10 nM hCAII, pH 8.0
MMP-2 = target: T2, MMP-2 (Homo sapiens, UniProt P08253); assay: MMP-2 assay; format: biochemical; conditions: read-out: IC50 MMP-2
T2 sequence (P08253 110-660): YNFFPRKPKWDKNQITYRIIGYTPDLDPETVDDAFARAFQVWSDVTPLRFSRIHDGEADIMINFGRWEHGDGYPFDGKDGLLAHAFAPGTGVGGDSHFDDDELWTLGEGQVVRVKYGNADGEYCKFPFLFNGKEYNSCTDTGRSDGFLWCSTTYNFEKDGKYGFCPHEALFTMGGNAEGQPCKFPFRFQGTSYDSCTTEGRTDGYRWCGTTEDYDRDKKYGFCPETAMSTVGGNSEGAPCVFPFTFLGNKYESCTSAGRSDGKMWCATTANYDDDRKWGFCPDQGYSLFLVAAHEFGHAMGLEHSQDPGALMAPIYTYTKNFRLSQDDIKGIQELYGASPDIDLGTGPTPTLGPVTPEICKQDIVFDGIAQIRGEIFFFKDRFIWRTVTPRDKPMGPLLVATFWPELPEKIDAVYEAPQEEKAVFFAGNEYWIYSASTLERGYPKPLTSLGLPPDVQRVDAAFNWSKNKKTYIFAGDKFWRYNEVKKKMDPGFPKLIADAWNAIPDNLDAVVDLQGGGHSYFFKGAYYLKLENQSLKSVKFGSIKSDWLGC

[2] = tested on: HCT116 human colon cancer cells; assay: HCT116 cell proliferation; format: cell-based
WT RPE1 cells = assay: RPE1 WT cell proliferation; format: cell-based; conditions: WT RPE cells, 72 hours
[3] = tested on: bortezomib-resistant (BTZR) RPE1 cells; assay: Bortezomib-resistant RPE1 cell proliferation; format: cell-based; conditions: BTZR RPE cells, 72 hours
[4] = tested on: c-Myc mRNA in HCT116 cells; assay: c-Myc mRNA expression by qRT-PCR; format: cell-based, human; conditions: 10 μM, 4 hours, normalized to GAPDH
[5] = tested on: unfolded protein response in HCT116 cells; assay: Unfolded protein response immunoblot; format: cell-based, human; conditions: HCT116, 6 hours
HCT116 cells = assay: Cell detachment; conditions: ETPs 10 μM, 3 hours
NFE2L1 in HCT116 cells = assay: Immunoblot of NFE2L1 accumulation; conditions: HCT116, 6 hours
[6] = target: purified human 26S proteasome (Homo sapiens, UniProt O00487+P28074); assay: SDS-PAGE analysis of proteasome activity; format: biochemical; conditions: 37 °C, 2 hours; 20 μM capzimin, 10 μM carfilzomib
26S proteasome = 26S proteasome (Homo sapiens, UniProt O00487); assay: Fluorescence polarization protein degradation assay with purified 26S proteasome; conditions: 37 °C, SOP6, gliotoxin 10 µM each
IκB = assay: IκBα degradation assay after TNF-α stimulation; format: cell-based, human; conditions: Hela cells, 10 minutes pre-treatment, TNF-α 30 minutes
[7] = tested on: ubiquitin conjugates in HCT116 cells; assay: Immunoblot of poly-ubiquitinated species; conditions: HCT116, 10 μM, 3 hours
Cul1 in HCT116 cells = assay: Immunoblot of Nedd8-conjugated Cul1; conditions: HCT116, 6 hours
[8] = target: chymotrypsin-like activity of the 20S proteasome (Homo sapiens, UniProt P28074); assay: Suc-LLVY-amc fluorescence assay of chymotrypsin-like activity; conditions: 20 µM compound, 20 μM Suc-LLVY-amc, 15 nM 26S proteasome

O=C1[C@H]2N(Cc3ccccc3)C(=O)[C@@](Cc3ccccc3)(N1Cc1ccccc1)S2=S (mixture of isomers) [SOP11, (±)-(1S,4S)-1,2,5-tribenzyl-7-thia-2,5-diazabicyclo[2.2.1]heptane-3,6-dione 7-sulfide]
IC50 (Rpn11): 1.3 ± 0.3 µM
IC50 (Csn5): 0.6 ± 0.2 µM
IC50 (AMSH): 0.9 ± 0.1 µM
IC50 [1]: > 100 µM
IC50 (MMP-2): > 100 µM
GI50 [2]: ~4.7 µM and 4.7 µM
GI50 (WT RPE1 cells): ~8 µM
GI50 [3]: ~8 µM
level of c-Myc mRNA [4]: decreased
unfolded protein response (UPR) [5]: provoked a pronounced UPR
cell detachment (HCT116 cells): did not detach cells
accumulation of processed NFE2L1 (NFE2L1 in HCT116 cells): induced accumulation of processed NFE2L1

Nc1ncnc2c1ncn2[C@@H]1O[C@H](COP(=O)(O)OP(=O)(O)NP(=O)(O)O)[C@@H](O)[C@H]1O [AMP-PNP]
degradation of UbnGST-Wbp2 by 26S proteasome (SDS-PAGE) [6]: blocked

Nc1ncnc2c1ncn2[C@@H]1O[C@H](CO[P@](=O)(O)O[P@](=O)(O)O[P@@](=O)(O)S)[C@@H](O)[C@H]1O [ATPγS]
effect on decline in fluorescence polarization (K48UbnGST-Wbp2 degradation) (26S proteasome): inhibited

CC(C)C[C@H](NC(=O)[C@H](Cc1ccccc1)NC(=O)c1cnccn1)B(O)O [bortezomib]
cell detachment (HCT116 cells): not observed

O=C(NCCc1nccs1)c1cnc2c(SSc3cccc4cc(C(=O)NCCc5nccs5)cnc34)cccc2c1 [capzimin]
degradation of UbnGST-Wbp2 by 26S proteasome (SDS-PAGE) [6]: blocked
cell detachment (HCT116 cells): not observed

CC(C)C[C@H](NC(=O)[C@H](CCc1ccccc1)NC(=O)CN1CCOCC1)C(=O)N[C@@H](Cc1ccccc1)C(=O)N[C@@H](CC(C)C)C(=O)[C@@]1(C)CO1 [carfilzomib]
degradation of UbnGST-Wbp2 by 26S proteasome (SDS-PAGE) [6]: blocked

CN1C(=O)[C@]2(Cc3cn([C@]45C[C@@]67SS[C@@](CO)(C(=O)N6[C@H]4Nc4ccccc45)N(C)C7=O)c4ccccc34)SS[C@@]1(CO)C(=O)N2C [chetomin]
effect on degradation of IκB induced by TNF-α (IκB): strongly stabilized IκB

CN1C(=O)[C@]23CC4=CC=C[C@H](O)[C@H]4N2C(=O)[C@@]1(CO)SS3 [gliotoxin]
effect on degradation of IκB induced by TNF-α (IκB): strongly stabilized IκB
cell detachment (HCT116 cells): induce cell detachment
accumulation of poly-ubiquitinated species [7]: led to the accumulation of ubiquitinated species
accumulation of Nedd8-conjugated Cul1 (Cul1 in HCT116 cells): caused accumulation of Nedd8-conjugated Cul1
inhibition of chymotrypsin-like activity of the proteasome [8]: do not inhibit
